# Experimental data reported in patent publication US11673878B2, “Benzazepine derivatives” (OTSUKA PHARMACEUTICAL CO., LTD., priority 2017, dated 2023).
# Columns and labels:
# [1] = Metabolic stability test in human liver microsomes; format: in vitro ADME; details: pH 7.4; human liver microsomes 1 mg/mL, test compound 1 μmol/L, NADPH and NADH, 37° C., n = 4; read-out: CLint (μL/min/mg) mean ± SD
# Description: Reaction System and Incubation
# According to methods of Obach and Jones, et al. (methods described in R. S. Obach, Drug Metab. Dispos. 1999 (27): 1350-1359 and H. Jones and J. B. Houston, Drug Metab. Dispos. 2004 (32): 973-982), the reaction system shown below was prepared and metabolic stabilities of test compounds (the present compounds and, tolvaptan) were evaluated using the reaction system shown below. Human liver microsomes purchased from Corning Inc. were used. Test compounds were dissolved in DMSO at the concentration of 10 mmol/L and then diluted with acetonitrile to prepare a 100 μmol/L solution for use in the test. The 100 μmol/L solutions were used in the experiment.
# Human liver microsome 1 mg/mL
# Co-factor (NADPH and NADH) 1 mmol/L each
# Magnesium chloride 5 mmol/L
# 100 mmol/L Potassium phosphate buffer (pH 7.4)
# The reaction mixture without co-factors was pre-incubated at 37° C. for 5 minutes, and then the reaction was initiated by the addition of the co-factors. The mixture was incubated for 0, 5, 10, 20, 30, and 60 minutes after the addition of the co-factors. An aliquot of the reaction mixture was removed and added to a methanol solution containing an internal standard (IS) and mixed to terminate the reaction at each predetermined time.
# After the reaction was terminated, the mixture was separated by centrifugation and the supernatant was injected into a liquid chromatograph-tandem mass spectrometer (LC-MS/MS) to measure unchanged substances remained in the reaction system. The mass spectrometer was operated in a positive ion mode of the electrospray ionization (ESI) method. Unchanged substances and the IS were detected by multiple reaction monitoring (MRM) transitions using selected precursor and product ions set.
# The remaining ratios of test compounds were calculated by the following equation. Remaining ratio=(Peak area ratio of a test compound to IS at t minutes after incubation)÷(Peak area ratio of a test compound to IS at 0 minute)
# The slope of X-axis (the incubation time) and Y-axis (logarithm of the remaining ratio) was calculated by a non-linear least square method. Hepatic intrinsic clearance (CLint) was calculated by the following equation. CLint(μL/min/mg)=−(Slope(min^−1))÷1(mg/mL)×1000
# [2] = target: T1, rat vasopressin V2 receptor (Rattus norvegicus, UniProt Q00788); experiment: Binding inhibition test for rat V2 receptor (3H-AVP, rV2R-CHO cells); details: inhibition of 3H-AVP binding, 4° C., 2 hours, read-out: Binding affinity rV2 (IC50)
# T1 construct: expressed in transfected cells; host or cells: CHO cells (rV2R-CHO)
# T1 sequence (Q00788 whole entry): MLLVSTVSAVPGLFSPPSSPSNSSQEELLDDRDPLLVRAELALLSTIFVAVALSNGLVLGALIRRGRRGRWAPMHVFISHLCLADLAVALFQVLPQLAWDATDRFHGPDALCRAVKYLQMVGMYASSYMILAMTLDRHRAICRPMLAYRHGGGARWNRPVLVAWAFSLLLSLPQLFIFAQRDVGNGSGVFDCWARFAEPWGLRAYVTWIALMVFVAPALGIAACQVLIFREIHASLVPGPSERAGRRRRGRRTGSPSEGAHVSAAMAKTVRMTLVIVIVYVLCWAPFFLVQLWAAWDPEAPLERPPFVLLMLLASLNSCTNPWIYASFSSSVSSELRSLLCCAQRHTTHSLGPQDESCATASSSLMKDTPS
# Description: (§1) Various compounds were studied in binding affinities for vasopressin receptors with an indicator of binding inhibition of rat vasopressin V1a receptor and vasopressin V2 receptor of ^3H-arginine vasopressin (AVP) (NET800, available from PerkinElmer Inc., Life Sciences).
# (2) Binding Inhibition Test for Rat V2 Receptor (rV2R)
# Rat V2 receptor-expressed CHO cells (rV2R—CHO) were incubated on 10% FBS-containing DMEM/F12 in a 24-well plate, and each cell was washed with D-PBS twice. A reaction solution (D-PBS containing 0.1% BSA and 0.05% sodium azide) comprising a compound in various concentrations (0.3 nM to 100 nM) was added to each well, and a certain amount of ^3H-AVP was added thereto (100-fold dilution). Reactions were carried out at 4° C. for 2 hours on the plate. Then, each well was washed with D-PBS twice and 0.1N NaOH was added to each well. The cells were collected, and the radioactivity of ^3H-AVP was measured with a scintillation counter.
# (§2) ^3H-AVP binding rate in the presence of a compound was calculated by the following equation. Binding rate (%)=(B−NSB)/(TB−NSB)×100 (B: Binding amount of ^3H-AVP in the presence of each compound, NSB: Binding amount of ^3H-AVP in the presence of 1 μM of unlabeled AVP, TB: Binding amount of ^3H-AVP in the absence of 1 μM of unlabeled AVP)
# [3] = target: T2, rat vasopressin V1a receptor (Rattus norvegicus, UniProt P30560); experiment: Binding inhibition test for rat V1a receptor (3H-AVP, rat hepatic membrane); details: inhibition of 3H-AVP binding, rat hepatic membrane V1a receptor fractions, 4° C., 2 hours; read-out: Binding affinity rV1a (IC50)
# T2 construct: V1a receptor fractions derived from rat hepatic membrane; from tissue; host or cells: rat liver (hepatic membrane)
# T2 sequence (P30560 whole entry): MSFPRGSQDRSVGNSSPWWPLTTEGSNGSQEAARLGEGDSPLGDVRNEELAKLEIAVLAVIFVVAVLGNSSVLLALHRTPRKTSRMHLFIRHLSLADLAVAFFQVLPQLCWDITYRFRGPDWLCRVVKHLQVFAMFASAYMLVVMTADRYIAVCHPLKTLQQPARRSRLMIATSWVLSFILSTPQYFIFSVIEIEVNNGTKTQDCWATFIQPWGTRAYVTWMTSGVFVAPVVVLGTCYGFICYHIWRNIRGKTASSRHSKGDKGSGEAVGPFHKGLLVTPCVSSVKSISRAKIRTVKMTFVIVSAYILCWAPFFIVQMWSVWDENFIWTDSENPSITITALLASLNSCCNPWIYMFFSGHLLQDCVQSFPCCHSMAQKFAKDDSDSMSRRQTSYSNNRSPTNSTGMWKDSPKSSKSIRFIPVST
# Description: as §1
# (1) Binding Inhibition Test for Rat V1a Receptor (rV1aR)
# 50 μg of V1a receptor fractions derived from rat hepatic membrane were diluted with a reaction solution (100 mM Tris-HCl (pH 8.0), 0.1% BSA, 5 mM MgCl2, 1 mM EDTA) and added to each well of a 96-well plate. A compound was added to each well in various concentrations (0.3 nM to 100 nM), and ^3H-AVP was added thereto in the range of 1 nM to 3 nM. Reactions were carried out at 4° C. for 2 hours on the plate. Via receptor fractions were collected with a 96-well glass filter (Unifilter GF/B) after the reactions and washed with a washing solution (10 mM Tris-HCl (pH 8.0), 5 mM MgCl2, 1 mM EDTA) three times, and then the radioactivity of ^3H-AVP was measured with a scintillation counter.
# as §2
# [4] = Pharmacokinetics study in mice, single oral dose; format: in vivo; details: mouse; male ICR mice, single-dose oral administration of 30 mg/kg, plasma
# Description: A pharmacokinetics (PK) study was performed using male ICR mice to compare the oral absorption properties of the present compounds with tolvaptan. A test compound was suspended in a 1% hydroxypropyl methylcellulose (HPMC) solution to be adjusted to the concentration of 4.5 mg/mL. The present compounds were used as the forms obtained in the above examples (including the amorphous form) for a test compound, or used after spray drying, if needed.
# Male ICR mice (7-week old) were freely fed food and water and weighed on an electronic scale. Then, a test compound was orally administered at the dose of 30 mg/kg […]. After the oral administration, blood was collected from the abdominal vena cava under isoflurane anesthesia using a 1 mL heparinized syringe with a 26 G injection needle. Blood was separated by centrifugation at 4° C., 3000 rpm for 10 minutes to give plasma in a supernatant. The plasma concentration of a test compound was measured by LC-MS/MS.
# The following PK parameters were calculated using the mean plasma concentrations of unchanged substances obtained from two animals at each time point.
# Cmax: Maximum plasma concentration (μg/mL)
# tmax: Time-to-maximum plasma concentration (h)
# AUCinf: Area under the plasma concentration-time curve from administration to infinite time (μg h/mL)
SMILES,microsomal CLint at 1 μmol/L [1],IC50 [2],IC50 [3],AUC(0-inf) [4],Cmax [4],Tmax [4]
"O=C(Nc1ccc(C(=O)N2CCC(F)(F)C(O)(CO)c3cc(Cl)ccc32)cn1)c1ccccc1C(F)(F)F (stereo not shown) [Example 2, N-{5-[7-chloro-4,4-difluoro-5-hydroxy-5-(hydroxymethyl)-2,3,4,5-tetrahydro-1H-1-benzazepine-1-carbonyl]pyridin-2-yl}-2-(trifluoromethyl)benzamide]",< 4 µL/min/mg,2.1 nM,3.4 nM,95700 ng·h/mL,9230 ng/mL,1 h
"O=C(Nc1ccc(C(=O)N2CCC(F)(F)C(O)(CO)c3cc(Cl)ccc32)cn1)c1cc(F)ccc1Cl (stereo not shown) [Example 3, 2-chloro-N-{5-[7-chloro-4,4-difluoro-5-hydroxy-5-(hydroxymethyl)-2,3,4,5-tetrahydro-1H-1-benzazepine-1-carbonyl]pyridin-2-yl}-5-fluorobenzamide]",< 4 µL/min/mg,2.1 nM,9.5 nM,38900 ng·h/mL,4820 ng/mL,1 h
"O=C(Nc1ccc(C(=O)N2CCC(F)(F)[C@](O)(CO)c3cc(Cl)ccc32)cn1)c1cc(F)ccc1Cl [Example 15, 2-chloro-N-{5-[(5R)-7-chloro-4,4-difluoro-5-hydroxy-5-(hydroxymethyl)-2,3,4,5-tetrahydro-1H-1-benzazepine-1-carbonyl]pyridin-2-yl}-5-fluorobenzamide]",< 4 µL/min/mg,1 nM,2.9 nM,63100 ng·h/mL,6180 ng/mL,1 h
"O=C(Nc1ccc(C(=O)N2CCC(F)(F)[C@](O)(CO)c3cc(Cl)ccc32)cc1)c1cc(F)ccc1Cl [Example 23, 2-chloro-N-{4-[(5R)-7-chloro-4,4-difluoro-5-hydroxy-5-(hydroxymethyl)-2,3,4,5-tetrahydro-1H-1-benzazepine-1-carbonyl]phenyl}-5-fluorobenzamide]",1.11 ± 2.21 µL/min/mg,1 nM,2.6 nM,71300 ng·h/mL,5420 ng/mL,4 h
"O=C(Nc1ccc(C(=O)N2CCC(F)(F)[C@](O)(CO)c3cc(Cl)ccc32)cc1F)c1cc(F)ccc1Cl [Example 24, 2-chloro-N-{4-[(5R)-7-chloro-4,4-difluoro-5-hydroxy-5-(hydroxymethyl)-2,3,4,5-tetrahydro-1H-1-benzazepine-1-carbonyl]-2-fluorophenyl}-5-fluorobenzamide]",< 4 µL/min/mg,1.5 nM,2.7 nM,44000 ng·h/mL,4080 ng/mL,4 h
"O=C(Nc1ccc(C(=O)N2CCC(F)(F)[C@](O)(CO)c3cc(Cl)ccc32)cn1)c1ccc(Cl)cc1Cl [Example 51, 2,4-dichloro-N-{5-[(5R)-7-chloro-4,4-difluoro-5-hydroxy-5-(hydroxymethyl)-2,3,4,5-tetrahydro-1H-1-benzazepine-1-carbonyl]pyridin-2-yl}benzamide]",< 4 µL/min/mg,1.7 nM,16.1 nM,53800 ng·h/mL,5070 ng/mL,1 h
"O=C(Nc1ccc(C(=O)N2CCC(F)(F)[C@](O)(CO)c3cc(Cl)ccc32)cn1)c1cc(F)c(Cl)cc1Cl [Example 52, 2,4-dichloro-N-{5-[(5R)-7-chloro-4,4-difluoro-5-hydroxy-5-(hydroxymethyl)-2,3,4,5-tetrahydro-1H-1-benzazepine-1-carbonyl]pyridin-2-yl}-5-fluorobenzamide]",< 4 µL/min/mg,3 nM,8.8 nM,62700 ng·h/mL,5570 ng/mL,1 h
"COc1cc(C(=O)N2CCC(F)(F)[C@](O)(CO)c3cc(Cl)ccc32)ccc1NC(=O)c1ccc(F)cc1Cl [Example 58, 2-chloro-N-{4-[(5R)-7-chloro-4,4-difluoro-5-hydroxy-5-(hydroxymethyl)-2,3,4,5-tetrahydro-1H-1-benzazepine-1-carbonyl]-2-methoxyphenyl}-4-fluorobenzamide]",1.81 ± 2.1 µL/min/mg,1.3 nM,9.3 nM,44900 ng·h/mL,5890 ng/mL,1 h
"O=C(Nc1ccc(C(=O)N2CCC(F)(F)[C@](O)(CO)c3cc(Cl)ccc32)cn1)c1ccccc1-c1ccccc1 [Example 63, N-{5-[(5R)-7-chloro-4,4-difluoro-5-hydroxy-5-(hydroxymethyl)-2,3,4,5-tetrahydro-1H-1-benzazepine-1-carbonyl]pyridin-2-yl}-[1,1′-biphenyl]-2-carboxamide]",3.1 ± 3.58 µL/min/mg,1.1 nM,1.4 nM,14400 ng·h/mL,4440 ng/mL,1 h
"O=C(Nc1ccc(C(=O)N2CCC(F)(F)[C@](O)(CO)c3cc(Cl)ccc32)cn1)c1cccnc1C(F)(F)F [Example 66, N-{5-[(5R)-7-chloro-4,4-difluoro-5-hydroxy-5-(hydroxymethyl)-2,3,4,5-tetrahydro-1H-1-benzazepine-1-carbonyl]pyridin-2-yl}-2-(trifluoromethyl)pyridine-3-carboxamide]",< 4 µL/min/mg,3.5 nM,21.1 nM,38300 ng·h/mL,4550 ng/mL,1 h
"O=C(Nc1ccc(C(=O)N2CCC(F)(F)[C@](O)(CO)c3cc(Cl)ccc32)cn1)c1cc(F)ccc1-c1ccccc1 [Example 96, N-{5-[(5R)-7-chloro-4,4-difluoro-5-hydroxy-5-(hydroxymethyl)-2,3,4,5-tetrahydro-1H-1-benzazepine-1-carbonyl]pyridin-2-yl}-4-fluoro-[1,1′-biphenyl]-2-carboxamide]",0.953 ± 1.91 µL/min/mg,5 nM,2 nM,43000 ng·h/mL,5550 ng/mL,4 h
"Cc1ccccc1C(=O)Nc1ccc(C(=O)N2CCCC(O)c3cc(Cl)ccc32)c(C)c1 (stereo not shown) [Tolvaptan, reference compound]",105 ± 11 µL/min/mg,–,–,1780 ng·h/mL,682 ng/mL,1 h
